Reference: publication PMC4450297, “Screening Active Compounds from Garcinia Species Native to China Reveals Novel Compounds Targeting the STAT/JAK Signaling Pathway” (BioMed Research International, 2015)

Experiments:
LnCap = experiment: Cell proliferation assay (CellTiter-Glo); assay type: cell-based; settings: Homo sapiens, LnCap cells, 72 h
Experimental: (§1) All cells were obtained from the cell bank of the American Type Culture Collection (ATCC) and cultured in the supplier's recommended media supplemented with 10% FBS. The cell panel screen was measured using the CellTiter-Glo assay (Promega, Madison, WI) following a standard protocol. Briefly, cancer cells were seeded in 96-well plates and cultured overnight at 37°C with or without 5% CO2 in an incubator. Each compound was dissolved with limited DMSO and diluted to a certain concentration with culture medium and then added to the corresponding well of the cell plate. The final concentration of compound was 20 μM. The control cells (without treatment) received the same amount of DMSO and were incubated under the same conditions. After 72 h cultivation, 100 μL of the CellTiter-Glo reagent was added directly to each well for 10-minute incubation. The plate was then read on a FlexStation 3 microplate luminometer (Molecular Devices, USA) to monitor the luminescence signal generated by the luciferase-catalyzed reaction of luciferin and ATP. The percent of growth inhibition was calculated using the following formula: (untreated cells − treated cells)/(untreated cells − background without cells) ∗ 100.
(§2) For proliferation assays, the CellTiter-Glo assay (Promega, Madison, WI) was used to evaluate the proliferation of cancer cells treated with test compounds as described above. Each compound was dissolved in limited DMSO and diluted to various concentrations with culture medium and then added to the corresponding wells. A dose-response curve was plotted, and the IC50 was calculated using XLfit software.

SK-MEL-28 = experiment: Cell proliferation assay (CellTiter-Glo); assay type: cell-based; settings: Homo sapiens, SK-MEL-28 cells, 72 h
Experimental: as §1, §2

SW1353 = experiment: Cell proliferation assay (CellTiter-Glo); assay type: cell-based; settings: Homo sapiens, SW1353 cells, 72 h
Experimental: as §1, §2

SW48 = experiment: Cell proliferation assay (CellTiter-Glo); assay type: cell-based; settings: Homo sapiens, SW48 cells, 72 h
Experimental: as §1, §2

U118MG = experiment: Cell proliferation assay (CellTiter-Glo); assay type: cell-based; settings: Homo sapiens, U-118-MG, U118MG cells, 72 h
Experimental: as §1, §2

NCI-H1650 cells = experiment: Apoptosis induction assay (Cell Death Detection ELISA); assay type: cell-based, human; settings: for effect of Z-VAD cotreatment on compound-induced oligonucleosomal fragmentation: NCI-H1650 cells, Z-VAD 10 μmol/L; for NCI-H1650 cells that underwent rapid apoptosis: after 8 h
Experimental: Apoptosis induction assays were performed after 8 or 24 h incubation with compounds using the Cell Death Detection ELISA assay (Roche). Apoptosis induction is represented relative to DMSO-treated controls (set at 1.0). Error bars denote the SEM.

[1] = test system: STAT3, ERK, AKT phosphorylation in NCI-H1650 cells; experiment: Western blot analysis in NCI-H1650 cells; assay type: cell-based, human; settings: 8 h
Experimental: (§3) Floating and adherent cells were harvested and treated with ice-cold RIPA lysis buffer (50 mM Tris-HCl, pH 7.5, 0.5% cholic acid, 2 mM EDTA, 10% glycerol, 150 mM NaCl, 0.1% SDS, and 1% Triton X-100) containing complete Mini Protease Inhibitor Cocktail (Roche Applied Science, Indianapolis, IN). Proteins were separated by sodium dodecyl sulfate polyacrylamide gel electrophoresis and transferred to nitrocellulose membranes. Membranes were blocked with 5% BSA in washing buffer (100 mM NaCl, 10 mM Tris-HCl, pH 7.5, and 0.1% Tween-20) for 1 hr at room temperature and incubated with the respective primary antibodies in 5% BSA in washing buffer overnight at 4°C with shaking. The membranes were probed with the following antibodies: p44/42 (Cat#9107, CST), phospho-p44/42 (Cat#4370, CST), AKT (Cat#9272, CST), phospho-AKT (ser473) (Cat#9271, CST), STAT3 (Cat#9139, CST), and phospho-STAT3 (Tyr705) (Cat#9131, CST). Membranes were then washed and incubated with anti-mouse or anti-rabbit fluorescent secondary antibodies (LICOR, US) diluted in washing buffer for 1 h at room temperature with shaking. Protein bands were detected using an Odyssey Imaging system (LICOR, US).

[2] = test system: phosphorylation of STAT3 upon IL-6 stimulation in HepG2 cells; experiment: Western blot, IL-6-stimulated STAT3 activation; assay type: cell-based, human; settings: pretreated 2 h, IL-6 10 ng/mL 15 min
Experimental: as §3

| Structure (SMILES) | IC50 (LnCap) [nM] | IC50 (SK-MEL-28) [nM] | IC50 (SW1353) [nM] | IC50 (SW48) [nM] | IC50 (U118MG) [nM] | effect of Z-VAD cotreatment on compound-induced oligonucleosomal fragmentation (NCI-H1650 cells) | NCI-H1650 cells that underwent rapid apoptosis (NCI-H1650 cells) [%] | Phosphorylation of ERK and AKT [1] | STAT3 expression and its phosphorylation (Tyr705) [1] | phosphorylation of STAT3 upon IL-6 stimulation [2] | apoptosis induction (oligonucleosomal fragmentation) (NCI-H1650 cells; after 24 h) |
| --- | --- | --- | --- | --- | --- | --- | --- | --- | --- | --- | --- |
| CC(C)=CCC/C(C)=C/Cc1c(O)c(CC=C(C)C)c2c(c1O)C(=O)C1=C[C@@H]3C[C@H]4C(C)(C)O[C@@](C/C=C(\C)C=O)(C3=O)[C@@]14O2 [GB49] | 1910 ± 60 | 1510 ± 120 | 1290 ± 50 | 2970 ± 60 | 1220 ± 50 | – | – | – | – | – | – |
| CC(C)=CCC[C@@]1(C)C=Cc2c(O)c3c(c(CCC(C)(C)O)c2O1)O[C@]12C(=C[C@@H]4C[C@H]1C(C)(C)O[C@@]2(C/C=C(/C)C(=O)O)C4=O)C3=O [GB39, 33-hydroxyepigambogic acid] | 840 ± 80 | 820 ± 110 | 760 ± 30 | 1440 ± 60 | 1150 ± 90 | completely suppressed | > 90 | inhibited | inhibited STAT3 expression and its phosphorylation in a dose-dependent manner | efficiently suppressed | – |
| CC(C)=CCC/C(C)=C/Cc1c(O)c(CC=C(C)C)c2c(c1O)C(=O)C1=C[C@@H]3C[C@H]4C(C)(C)O[C@@](C/C=C(\C)C(=O)O)(C3=O)[C@@]14O2 [GB63] | 2170 ± 210 | 1750 ± 160 | 2480 ± 110 | 4020 ± 150 | 3050 ± 100 | – | – | – | – | – | – |
| CC(C)=CCC/C(C)=C/Cc1c(O)c(CC=C(C)C)c2c(c1O)C(=O)C1=C[C@@H]3C[C@H]4C(C)(C)O[C@@](CC=C(C)C)(C3=O)[C@@]14O2 [GB32] | 1800 ± 140 | 1510 ± 70 | 1410 ± 50 | 3840 ± 90 | 1190 ± 70 | completely suppressed | – | – | – | – | significant apoptosis |
| CC(C)=CCC[C@@]1(C)C=Cc2c(O)c3c(c(C/C=C(\C)CO)c2O1)O[C@]12C(=C[C@@H]4C[C@H]1C(C)(C)O[C@@]2(C/C=C(/C)C(=O)O)C4=O)C3=O [GB40, 35-hydroxyepigambogic acid] | 790 ± 120 | 730 ± 210 | 830 ± 50 | 1470 ± 100 | 1030 ± 150 | completely suppressed | > 90 | inhibited | inhibited STAT3 expression and its phosphorylation in a dose-dependent manner | efficiently suppressed | – |
